Assay results taken from US7696208B2, “Therapeutic agents useful for treating pain” (Purdue Pharma L.P., priority 2003, dated 2010).

Legend:
human VR1 [1] = molecular target: T1, human VR1 (Homo sapiens, UniProt Q8NER1); experiment: pH-based assay (FLIPR calcium influx, inducible HEK293-EcR cells expressing human VR1); format: cell-based; conditions: agonist buffer giving pH 5.5, HEK293-EcR cells induced with 5 μM PonA, Fluo-4, FLIPR, n=5
T1 construct: expressed in transfected cells; host or cells: HEK293-EcR cells, expression induced with ponasterone A
T1 sequence (Q8NER1 whole entry): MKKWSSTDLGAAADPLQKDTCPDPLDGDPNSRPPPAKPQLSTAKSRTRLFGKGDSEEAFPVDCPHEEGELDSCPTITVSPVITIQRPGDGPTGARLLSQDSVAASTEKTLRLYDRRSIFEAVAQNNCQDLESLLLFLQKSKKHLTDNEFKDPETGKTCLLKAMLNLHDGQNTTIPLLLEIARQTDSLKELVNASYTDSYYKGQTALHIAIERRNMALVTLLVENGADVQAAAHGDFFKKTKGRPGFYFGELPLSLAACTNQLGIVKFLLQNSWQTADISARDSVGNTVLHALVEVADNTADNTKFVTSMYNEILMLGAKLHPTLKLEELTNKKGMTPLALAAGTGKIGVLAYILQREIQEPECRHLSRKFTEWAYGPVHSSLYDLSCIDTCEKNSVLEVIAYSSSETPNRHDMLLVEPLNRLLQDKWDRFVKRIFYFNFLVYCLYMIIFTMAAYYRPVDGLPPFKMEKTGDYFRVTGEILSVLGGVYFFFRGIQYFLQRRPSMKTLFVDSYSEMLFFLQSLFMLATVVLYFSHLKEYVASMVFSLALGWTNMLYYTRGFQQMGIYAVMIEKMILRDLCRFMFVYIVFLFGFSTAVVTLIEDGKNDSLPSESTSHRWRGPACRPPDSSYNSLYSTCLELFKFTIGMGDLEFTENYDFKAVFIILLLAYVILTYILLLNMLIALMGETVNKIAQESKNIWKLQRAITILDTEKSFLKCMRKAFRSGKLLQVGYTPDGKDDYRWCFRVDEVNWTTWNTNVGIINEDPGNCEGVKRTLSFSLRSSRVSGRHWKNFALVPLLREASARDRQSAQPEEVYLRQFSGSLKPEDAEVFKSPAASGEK
Procedure: (§1) Human VR1 Cloning: Human spinal cord RNA (commercially available from Clontech, Palo Alto, Calif.) was used. Reverse transcription was conducted on 1.0 μg total RNA using Thermoscript Reverse Transcriptase (commercially available from Invitrogen, Carlsbad, Calif.) and oligo dT primers as detailed in its product description. Reverse transcription reactions were incubated at 55° C. for 1 h, heat-inactivated at 85° C. for 5 min, and RNase H-treated at 37° C. for 20 min.
(§2) Human VR1 cDNA sequence was obtained by comparison of the human genomic sequence, prior to annotation, to the published rat sequence. Intron sequences were removed and flanking exonic sequences were joined to generate the hypothetical human cDNA. Primers flanking the coding region of human VR1 were designed as follows: forward primer, […]; and reverse primer, […]. […]
(§3) Generation of Inducible Cell Lines: Unless noted otherwise, cell culture reagents were purchased from Life Technologies of Rockville, Md. […] On the day of assay, cells were loaded with Fluo-4 (a calcium-sensitive dye that is commercially available from Molecular Probes, Eugene, Oreg.) and CAP-mediated calcium influx was measured using a FLIPR as described below. […]

human VR1 [2] = molecular target: T1, human VR1; experiment: Capsaicin-based assay (FLIPR calcium influx, inducible HEK293-EcR cells expressing human VR1); format: cell-based; conditions: activation by 50 μL of capsaicin (400 nM), HEK293-EcR cells induced with 5 μM PonA, Fluo-4, FLIPR, n=3
Procedure: as §1, §2, §3

O=C(NCCc1ccccc1)N1CCN(c2ncccc2C(F)(F)F)CC1 [Compound A19]
IC50 (human VR1 [1]): 808 ± 254 nM
IC50 (human VR1 [2]): 382 ± 64.2 nM
